Measured values: US11214594B2, “Antimicrobial peptide having synergistic antibacterial effect with antibiotics on multidrug resistant bacteria, and use thereof” (priority 2016, dated 2022)
Where a SMILES comes first, the peptide text is derived from it. [ ]: non-standard residue; d: D form.

Columns and labels:
MRSA 3114 = assay type: cell-based, Staphylococcus aureus; conditions: 3114
Summary of the method: (§1)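 Peptides were serially diluted twofold in Mueller-Hinton medium and combined 1:1 with bacterial suspensions prepared at 2×10^6 CFU. Readout was the minimal inhibitory concentration, i.e. the lowest concentration with no growth.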

MRSA 3126 = assay type: cell-based, Staphylococcus aureus; conditions: 3126
Summary of the method: as §1

B. subtilis = assay: microbe, parasite or virus in culture; assay type: cell-based, Bacillus subtilis
Summary of the method: as §1

MDRST 8007 = assay: Minimal inhibitory concentration (MIC), single agent; assay type: cell-based, Salmonella typhimurium; conditions: agent alone
Summary of the method: as §1

S. aureus = assay: microbe, parasite or virus in culture; assay type: cell-based, Staphylococcus aureus
Summary of the method: as §1

S. typhimurium = assay: microbe, parasite or virus in culture; assay type: cell-based, Salmonella typhimurium
Summary of the method: as §1

E. coli [1] = assay: MIC of antibiotic during combined treatment with antimicrobial peptide; assay type: cell-based, Escherichia coli; conditions: for Antibiotic MIC, Erythromycin / Antibiotic MIC, Linezolid / Antibiotic MIC, Vancomycin: E. coli
Summary of the method: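 Checkerboard-type MIC of peptide–antibiotic mixtures in MH medium: the antibiotic was serially diluted in MH medium and added to wells, then the reversed arrangement was also tested.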

[2] = tested on: multi-drug resistant bacteria; assay: MIC, summary statements for multi-drug resistant bacteria; assay type: cell-based
Experimental: For the antibacterial activity, a minimal inhibitory concentration (MIC) of a peptide in which fungus bodies were not split in an MH medium with sufficient nutrients was measured.
Specifically, the strains described in the following [Table 2] were purchased and diluted with an MH medium such that the number of bacteria was 2×10^6 colony-forming units (CFUs), 100 μl of each of the diluted strains was aliquoted into a 96-well microtiter plate, and then 100 μl of a peptide solution diluted with the MH medium (solution diluted stepwise at 2: 1) was added to each well.

A. baumannii = assay: microbe, parasite or virus in culture; assay type: cell-based, Acinetobacter baumannii
Summary of the method: as §1

MDRAB 12035 = assay: microbe, parasite or virus in culture; assay type: cell-based, Acinetobacter baumannii
Summary of the method: as §1

MDRPA 2002 = assay type: cell-based, Pseudomonas aeruginosa
Summary of the method: as §1

MDREC 1229 = assay: microbe, parasite or virus in culture; assay type: cell-based, Escherichia coli
Summary of the method: as §1

E. coli [3] = assay: microbe, parasite or virus in culture; assay type: cell-based, Escherichia coli; conditions: 16 h
Summary of the method: as §1

CC[C@H](C)[C@H](NC(=O)[C@H](CCCCN)NC(=O)[C@H](Cc1c[nH]c2ccccc12)NC(=O)[C@@H](N)CCCNC(=N)N)C(=O)N[C@@H](Cc1ccccc1)C(=O)N[C@@H](CCCCN)C(=O)N[C@@H](CCCCN)C(=O)N[C@H](C(=O)N[C@H](CCCCN)C(=O)N[C@@H](CCCCN)C(=O)N[C@@H](CC(C)C)C(=O)N[C@@H](CC(C)C)C(=O)N[C@@H](Cc1c[nH]cn1)C(=O)N[C@@H](CCC(=O)O)C(=O)N[C@@H](C)C(=O)N[C@@H](CCCCN)C(=O)N[C@@H](CCCCN)C(=O)N[C@@H](Cc1c[nH]c2ccccc12)C(N)=O)[C@@H](C)CC [PapMA-20, RWK IFK KIk KLL HEA KKW-NH2] (H-RWKIFKKI[dK]KLLHEAKKW-NH2; N-terminus assumed)
>128 µg/mL: Minimal inhibitory concentration MIC (MRSA 3114) | Minimal inhibitory concentration MIC (MRSA 3126) | Minimal inhibitory concentration MIC (B. subtilis) | Minimal inhibitory concentration MIC (S. aureus) | Antibiotic MIC, Linezolid (E. coli [1]; linezolid combined with peptide at 1 μg/ml) | Antibiotic MIC, Vancomycin (E. coli [1]; vancomycin combined with peptide at 1 μg/ml) | Antibiotic MIC, Vancomycin (E. coli [1]; vancomycin combined with peptide at 2 μg/ml)
16 µg/mL: Antibiotic MIC, Linezolid (E. coli [1]; linezolid combined with peptide at 4 μg/ml) | Antibiotic MIC, Vancomycin (E. coli [1]; vancomycin combined with peptide at 6 μg/ml) | Minimal inhibitory concentration MIC (A. baumannii) | Peptide MIC, peptide alone (A. baumannii) | Minimal inhibitory concentration MIC (MDRAB 12035) | Peptide MIC, peptide alone (MDRAB 12035) | Minimal inhibitory concentration MIC (MDREC 1229) | Peptide MIC, peptide alone (MDREC 1229) | Minimal inhibitory concentration MIC (E. coli [3])
1 µg/mL: Antibiotic MIC, Erythromycin (E. coli [1]; erythromycin combined with peptide at 6 μg/ml)
twice to four times higher: Antibacterial activity relative to PapMA-1 [2]
32 µg/mL: Minimal inhibitory concentration MIC (S. typhimurium) | Antibiotic MIC, Erythromycin (E. coli [1]; erythromycin combined with peptide at 2 μg/ml)
4 µg/mL: Antibiotic MIC, Linezolid (E. coli [1]; linezolid combined with peptide at 8 μg/ml)
0 µg/mL: Antibiotic MIC, Erythromycin (E. coli [1]; erythromycin combined with peptide at 16 μg/ml) | Antibiotic MIC, Erythromycin (E. coli [1]; erythromycin combined with peptide at 32 μg/ml) | Antibiotic MIC, Erythromycin (E. coli [1]; erythromycin combined with peptide at 64 μg/ml) | Antibiotic MIC, Linezolid (E. coli [1]; linezolid combined with peptide at 16 μg/ml) | Antibiotic MIC, Linezolid (E. coli [1]; linezolid combined with peptide at 32 μg/ml) | Antibiotic MIC, Linezolid (E. coli [1]; linezolid combined with peptide at 64 μg/ml) | Antibiotic MIC, Vancomycin (E. coli [1]; vancomycin combined with peptide at 16 μg/ml) | Antibiotic MIC, Vancomycin (E. coli [1]; vancomycin combined with peptide at 32 μg/ml) | Antibiotic MIC, Vancomycin (E. coli [1]; vancomycin combined with peptide at 64 μg/ml)
higher level than the PapMA-1 peptide: Synergistic effect of antibacterial activity with existing antibiotics compared with PapMA-1 (E. coli [1]; E. coli and MDREC1229)
64 µg/mL: Minimal inhibitory concentration MIC (MDRST 8007) | Antibiotic MIC, Erythromycin (E. coli [1]; erythromycin combined with peptide at 1 μg/ml) | Antibiotic MIC, Linezolid (E. coli [1]; linezolid combined with peptide at 2 μg/ml) | Antibiotic MIC, Vancomycin (E. coli [1]; vancomycin combined with peptide at 4 μg/ml) | Minimal inhibitory concentration MIC (MDRPA 2002)
0.5 µg/mL: Antibiotic MIC, Erythromycin (E. coli [1]; erythromycin combined with peptide at 8 μg/ml)
at least twice as high: Antibacterial activity relative to PapMA-1 (A. baumannii; A. baumannii and S. typhimurium)
8 µg/mL: Antibiotic MIC, Erythromycin (E. coli [1]; erythromycin combined with peptide at 4 μg/ml) | Antibiotic MIC, Linezolid (E. coli [1]; linezolid combined with peptide at 6 μg/ml) | Antibiotic MIC, Vancomycin (E. coli [1]; vancomycin combined with peptide at 8 μg/ml)
